In doi:10.1101/2025.10.21.683780 (bioRxiv, 2025) one finds IC50 data, which are given here for one compound.

In data set [1] the target is T1, OATP1B3 (Homo sapiens, UniProt Q9NPD5).
T1 construct: gene SLCO1B3
T1 sequence (Q9NPD5 1-702): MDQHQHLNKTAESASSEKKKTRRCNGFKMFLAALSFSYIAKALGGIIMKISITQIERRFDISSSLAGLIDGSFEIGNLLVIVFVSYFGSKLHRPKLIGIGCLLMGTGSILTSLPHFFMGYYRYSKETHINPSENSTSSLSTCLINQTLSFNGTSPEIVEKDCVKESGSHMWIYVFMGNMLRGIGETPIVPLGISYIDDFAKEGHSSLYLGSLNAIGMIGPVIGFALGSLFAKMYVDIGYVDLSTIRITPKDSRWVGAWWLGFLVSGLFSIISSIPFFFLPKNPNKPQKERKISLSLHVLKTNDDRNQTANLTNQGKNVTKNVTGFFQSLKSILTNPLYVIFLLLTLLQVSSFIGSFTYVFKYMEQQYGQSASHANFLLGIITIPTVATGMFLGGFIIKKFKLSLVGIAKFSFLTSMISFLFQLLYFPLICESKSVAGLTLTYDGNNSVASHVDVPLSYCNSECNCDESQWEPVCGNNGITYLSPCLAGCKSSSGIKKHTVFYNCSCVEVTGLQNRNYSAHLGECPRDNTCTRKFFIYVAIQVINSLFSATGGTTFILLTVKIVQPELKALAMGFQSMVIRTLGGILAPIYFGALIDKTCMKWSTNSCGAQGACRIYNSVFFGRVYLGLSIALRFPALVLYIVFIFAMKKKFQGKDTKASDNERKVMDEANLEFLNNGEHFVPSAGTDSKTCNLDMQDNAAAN
Type of data set: cell-based. The following applies: hek293 cells.

Data set [2] concerns the target T2, OAT4 (Homo sapiens, UniProt Q9NSA0).
T2 construct: gene SLC22A11
T2 sequence (Q9NSA0 1-550): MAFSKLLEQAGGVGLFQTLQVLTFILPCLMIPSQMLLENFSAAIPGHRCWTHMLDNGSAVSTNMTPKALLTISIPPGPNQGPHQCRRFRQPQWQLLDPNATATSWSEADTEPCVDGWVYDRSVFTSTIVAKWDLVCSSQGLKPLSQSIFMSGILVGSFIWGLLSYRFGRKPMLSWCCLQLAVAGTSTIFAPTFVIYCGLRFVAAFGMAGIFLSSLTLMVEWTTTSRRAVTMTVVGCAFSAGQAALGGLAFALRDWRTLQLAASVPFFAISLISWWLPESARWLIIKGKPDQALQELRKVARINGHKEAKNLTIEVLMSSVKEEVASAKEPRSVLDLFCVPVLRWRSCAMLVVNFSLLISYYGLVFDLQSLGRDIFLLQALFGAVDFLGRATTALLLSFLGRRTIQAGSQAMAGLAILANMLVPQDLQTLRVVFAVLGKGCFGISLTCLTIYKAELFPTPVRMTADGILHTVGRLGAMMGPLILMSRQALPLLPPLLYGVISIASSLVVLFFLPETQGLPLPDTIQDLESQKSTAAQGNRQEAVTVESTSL
Briefly: inhibition of methotrexate uptake in OAT4-expressing HEK293 cells; also transported. Format: cell-based. The following applies: read-out: Dicloxacillin / IC50 (95% CI).

With `Cc1onc(-c2c(Cl)cccc2Cl)c1C(=O)N[C@@H]1C(=O)N2[C@@H]1SC(C)(C)[C@@H]2C(=O)O` [dicloxacillin], the IC50 in data set [1] was determined as 6.68 µM; in data set [2], 7.23 µM.
